Reference: a compilation of properties of binary mixtures (doi:10.1016/j.molliq.2019.03.034)

Assay: xn = mol fraction of the nth substance listed
Details: 100 kPa

C[N+](C)(C)Cc1ccccc1.[Cl-] + O
viscosity [mPa·s]
Details	298.15 K	303.15 K	308.15 K	313.15 K	318.15 K
x1 = 0.0001	0.895	0.806	0.723	0.627	0.541
x1 = 0.0003	0.897	0.808	0.726	0.623	0.537
x1 = 0.0005	0.901	–	0.73	0.638	0.552
